{"source": "patent US4910021A", "about": "“Targeted enternal delivery system” (priority 1985, dated 1990)", "key": {"blood glucose": {"test_system": "blood glucose", "assay": "Hypoglycemia effect in rats after oral (coated capsules) or intraperitoneal insulin", "format": "in vivo, rat (Hebrew University strain male rats)", "design": "AUC (area under the % glucose reduction versus time curve): unit not given beside the values", "details": "i.p., 4 iu, 15 iu kg^-1, rats"}, "[1]": {"details": "rectal, dogs, cited from earlier work"}, "rats": {"test_system": "rats", "details": "intrajejunal injection in presence of Cetamacrogol 1000, rats; cited from earlier work"}}, "note": "Like-named read-outs stand apart in the source and are kept apart here.", "data": [{"substance": "insulin: porcine insulin Leo Neutral 100 iu ml^-1 (Nordisk Gentofte); i.p. 4 iu neutral insulin", "values": [{"measurement": "AUC (area under the % glucose reduction versus time curve)", "setting": "blood glucose", "value": 258}, {"measurement": "Cmax (maximum % glucose reduction)", "setting": "blood glucose", "value": 58, "unit": "%"}, {"measurement": "tmax (time of the maximum effect)", "setting": "blood glucose", "value": 2, "unit": "h"}, {"measurement": "bioavailability", "setting": "[1]; before improvement by post-administration of promoter", "value": 19.4, "unit": "%"}, {"measurement": "bioavailability", "setting": "[1]; with post-administration of promoter (enamine)", "value": 38.2, "unit": "%"}, {"measurement": "hypoglycemia", "setting": "rats", "value": "significant hypoglycemia"}]}]}
